According to patent US20220380341A1, “INHIBITORS OF HIV-1 NEF FOR THE TREATMENT OF HIV DISEASE” (priority 2018, published 2022):
Read-outs that look alike come from different tables or passages of the source.

What was measured:
HIV-1 NefNL4-3 = HIV-1 NefNL4-3 (Human immunodeficiency virus type 1 group M subtype B, UniProt P03406, A33V/T15A/T51N/V11I); test: Surface plasmon resonance binding to recombinant full-length Nef (NL4-3); conditions: for RU30/RUNef (extent of binding): response units at 30 μM relative to Nef immobilized on the SPR chip
TZM-bl cell line = format: cell-based; conditions: 1 μM
How it was run: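 Luciferase read-out 48 h post-infection; compound at 1 μM during HIV-1NL4-3 infection of TZM-bl cells. Percent inhibition scaled to DMSO wild-type virus (0%) and DMSO Nef-defective virus (100% of Nef-dependent effect). Viability checked separately in uninfected cells by Cell Titer Blue.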

HIV-1NL4-3 = test: HIV-1 infectivity assay in TZM-bl reporter cell line (LTR-luciferase, 48 h); format: cell-based; conditions: for inhibition at 1 µM: Human immunodeficiency virus 1, TZM-bl
How it was run: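 Percent inhibition of HIV-1NL4-3 infectivity at 1 μM compound, from luciferase output of TZM-bl cells 48 h after infection. Scale anchors are DMSO-treated wild-type infection as zero and DMSO-treated Nef-defective infection as full Nef-dependent effect.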

[1] = KD, M, Table 4, SPR fit 2-step induced fit, KD = koff/kon × koff2/(koff2 + kon2)
[2] = Nef NL4-3 Binding, SPR 2-state fitting KD, Table 1, 2-step induced-fit model
[3] = Table 4, 2-step induced fit, T = 1/koff2
[4] = read-out: Nef NL4-3 Binding, SPR 1:1 or 2-site fitting KD2, Table 1, 2-site fit, second component
[5] = 1.0 μM, TZM-bl reporter cell line, Table 4, read-out: % Infectivity Inhibition
[6] = 48 h, Table 1, TZM-bl cells, 1 μM, 48 h, 100% = Nef-defective HIV-1, read-out: HIV-1 Infectivity % Inhibition Norm. to Δ-Nef @ 1 μM
[7] = KD, M, Table 4, SPR fit 1:1 Langmuir, KD = koff/kon
[8] = Table 4, 1:1 Langmuir fit, T = 1/koff
[9] = Table 1, 1:1 Langmuir fit where the KD2 cell says '1 to 1 fitting', else 2-site fit

SMILES | Kd (HIV-1 NefNL4-3) | Kd (HIV-1 NefNL4-3; [1]) | Kd (HIV-1 NefNL4-3; [2]) | RU30/RUNef (extent of binding) (HIV-1 NefNL4-3) | % Cell Viability (TZM-bl cell line; human) | Percent Viability @ 1 μM (TZM-bl cells) (TZM-bl cell line; human) | inhibition at 1 µM (HIV-1NL4-3; [5]) | inhibition at 1 µM (HIV-1NL4-3; [6]) | also measured
CS(=O)(=O)c1ccc(-c2nn(-c3nc4cc(Cl)ccc4[nH]3)c(O)c2CCC2CCNCC2)cc1 [Compound I-550, 1-(5-chloro-1H-1,3-benzodiazol-2-yl)-3-(4-methanesulfonylphenyl)-4-[2-(piperidin-4-yl)ethyl]-1H-pyrazol-5-ol] | 282 nM | 8.54 nM | 8.54 nM | 1.75E- 02 | 98.8% | 98.8% | 0% | -12.9% | T, minutes (residence time) (HIV-1 NefNL4-3; [3]): 3.33E + 03 minutes; Kd (HIV-1 NefNL4-3; [4]): 6200 nM
Oc1c(CCc2ccc(F)cc2)c(C2CCOCC2)nn1-c1cc(C(F)(F)F)n[nH]1 [Compound I-623, 4-[2-(4-fluorophenyl)ethyl]-3-(oxan-4-yl)-5′-(trifluoromethyl)-2′H-[1,3′-bipyrazol]-5-ol] | 221000 nM | – | – | 1.67E- 02 | 100% | 100.7% | 17.4% | – | Kd (HIV-1 NefNL4-3; [7]): 221000 nM; T, minutes (residence time) (HIV-1 NefNL4-3; [8]): 2.88E + 00 minutes; inhibition at 1 µM (HIV-1NL4-3; 48 h, Table 2, TZM-bl cells, 1 μM, 48 h, 100% = Nef-defective HIV-1, read-out: HIV-1 Infectivity % Inhibition Norm. to Δ-Nef @ 1 μM): 17.4%
COCCc1nn(-c2nc3ccccc3[nH]2)c(O)c1CCc1ccc(F)cc1 [Compound I-125, 1-(1H-1,3-benzodiazol-2-yl)-4-[2-(4-fluorophenyl)ethyl]-3-(2-methoxyethyl)-1H-pyrazol-5-ol] | 3070 nM | 3130 nM | 3130 nM | 2.86E- 03 | 100% | 101.1% | 21.2% | 21.2% | T, minutes (residence time) (HIV-1 NefNL4-3; [3]): 8.87E + 00 minutes
O=C(Cc1ccncc1)N1CCCC1c1nn(-c2nc3ccccc3[nH]2)c(O)c1CCc1ccc(F)cc1 (stereo not drawn) [Compound I-760, 1-{2-[1-(1H-1,3-benzodiazol-2-yl)-4-[2-(4-fluorophenyl)ethyl]-5-hydroxy-1H-pyrazol-3-yl]pyrrolidin-1-yl}-2-(pyridin-4-yl)ethan-1-one] | 780 nM | – | – | 1.38E- 03 | 96.8% | 96.8% | 46.5% | 46.5% | Kd (HIV-1 NefNL4-3; [7]): 780 nM; T, minutes (residence time) (HIV-1 NefNL4-3; [8]): 7.31E + 00 minutes
CC(=O)N1CCCC(c2nn(-c3nc4ccccc4[nH]3)c(O)c2CCc2ccc(F)cc2)C1 (stereo not drawn) [Compound I-754, 1-{3-[1-(1H-1,3-benzodiazol-2-yl)-4-[2-(4-fluorophenyl)ethyl]-5-hydroxy-1H-pyrazol-3-yl]piperidin-1-yl}ethan-1-one] | 477 nM | 0.0233 nM | 0.0233 nM | 5.14E- 03 | 97.2% | 97.2% | 37.4% | 37.4% | T, minutes (residence time) (HIV-1 NefNL4-3; [3]): 8.05E + 05 minutes; Kd (HIV-1 NefNL4-3; [4]): 7320 nM
CC(=O)N1CCC(c2c(-c3ccc(C(F)(F)F)cc3)nn(-c3nc4ccccc4[nH]3)c2O)CC1 [Compound I-713, 1-{4-[1-(1H-1,3-benzodiazol-2-yl)-5-hydroxy-3-[4-(trifluoromethyl)phenyl]-1H-pyrazol-4-yl]piperidin-1-yl}ethan-1-one] | 378000 nM | – | – | – | – | 76.8% | – | 27.8% | –
Oc1c(CCc2ccc(F)cc2)c(-c2ccc(C(F)(F)F)cc2)nn1-c1nc2ccccc2[nH]1 [Compound I-106, 1-(1H-1,3-benzodiazol-2-yl)-4-[2-(4-fluorophenyl)ethyl]-3-[4-(trifluoromethyl)phenyl]-1H-pyrazol-5-ol] | 20200 nM | – | – | – | – | 84.5% | – | 98.2% | Kd (HIV-1 NefNL4-3; Nef NL4-3 Binding, SPR 1:1 or 2-site fitting KD2, Table 1, 2-site fit, second component): 3260 nM
O=C(OCc1ccccc1)N1CCC(c2nn(-c3nc4ccccc4[nH]3)c(O)c2CCc2ccc(F)cc2)CC1 [Compound I-158, benzyl 4-[1-(1H-1,3-benzodiazol-2-yl)-4-[2-(4-fluorophenyl)ethyl]-5-hydroxy-1H-pyrazol-3-yl]piperidine-1-carboxylate] | – | – | – | – | – | 92.0% | – | 101% | Nef NL4-3 Binding, SPR 1:1 or 2-site fitting KD1 (HIV-1 NefNL4-3; [9]): No Interaction
CC(C)(O)C(=O)N1CCCC1c1nn(-c2nc3ccccc3[nH]2)c(O)c1CCc1ccc(F)cc1 (stereo not drawn) [Compound I-761, 1-{2-[1-(1H-1,3-benzodiazol-2-yl)-4-[2-(4-fluorophenyl)ethyl]-5-hydroxy-1H-pyrazol-3-yl]pyrrolidin-1-yl}-2-hydroxy-2-methylpropan-1-one] | 854 nM | – | – | – | – | 101.5% | – | -3.8% | –
O=S(=O)(c1cccnc1)N1CCC(c2nn(-c3nc4ccccc4[nH]3)c(O)c2CCc2ccc(F)cc2)CC1 [Compound I-742, 1-(1H-1,3-benzodiazol-2-yl)-4-[2-(4-fluorophenyl)ethyl]-3-[1-(pyridine-3-sulfonyl)piperidin-4-yl]-1H-pyrazol-5-ol] | – | 0.00143 nM | 0.00143 nM | 2.76E- 03 | 77.3% | 77.3% | 100% | 125% | Kd (HIV-1 NefNL4-3; [4]): 56200 nM
CC(=O)N1CCC(c2nn(-c3nc4cc(Cl)ccc4[nH]3)c(O)c2CCC2CCOCC2)CC1 [Compound I-703, 1-{4-[1-(5-chloro-1H-1,3-benzodiazol-2-yl)-5-hydroxy-4-[2-(oxan-4-yl)ethyl]-1H-pyrazol-3-yl]piperidin-1-yl}ethan-1-one] | 1540 nM | – | – | – | – | 99.2% | – | -8.1% | –
Oc1c(CC2CCOCC2)c(C2CC2)nn1-c1nc2ccccc2[nH]1 [Compound I-174, 1-(1H-1,3-benzodiazol-2-yl)-3-cyclopropyl-4-[(oxan-4-yl)methyl]-1H-pyrazol-5-ol] | 1370 nM | – | – | 3.94E- 03 | 100% | 101.5% | 11.9% | 11.9% | Kd (HIV-1 NefNL4-3; [7]): 1370 nM; T, minutes (residence time) (HIV-1 NefNL4-3; [8]): 6.54E + 00 minutes
Oc1c(CCc2ccc(F)cc2)c(-c2cnc(C(F)(F)F)nc2)nn1-c1nc2ccccc2[nH]1 [Compound I-126, 1-(1H-1,3-benzodiazol-2-yl)-4-[2-(4-fluorophenyl)ethyl]-3-[2-(trifluoromethyl)pyrimidin-5-yl]-1H-pyrazol-5-ol] | – | – | – | – | – | 107.8% | – | -13.9% | Nef NL4-3 Binding, SPR 1:1 or 2-site fitting KD1 (HIV-1 NefNL4-3; [9]): No Interaction
CC(C)(C)OC(=O)NC1(c2nn(-c3nc4ccccc4[nH]3)c(O)c2CCc2ccc(F)cc2)CCOCC1 [Compound I-213, tert-butyl N-{4-[1-(1H-l,3-benzodiazol-2-yl)-4-[2-(4-fluorophenyl)ethyl]-5-hydroxy-1H-pyrazol-3-yl]oxan-4-yl}carbamate] | – | – | – | – | – | – | – | – | Kd (HIV-1 NefNL4-3; Table 1, 1:1 Langmuir fit where the KD2 cell says '1 to 1 fitting', else 2-site fit, read-out: Nef NL4-3 Binding, SPR 1:1 or 2-site fitting KD1): 1600 nM; Percent Viability @ 1 μM (TZM-bl cells) (TZM-bl cell line; Table 1, uninfected TZM-bl cells, Cell Titer Blue): 97.6%; HIV-1 Infectivity % Inhibition Norm. to Δ-Nef @ 1 μM (HIV-1NL4-3; Table 1, TZM-bl cells, 1 μM, 48 h, 100% = Nef-defective HIV-1): −4.6%
O=C(OCc1ccccc1)N1CCC(c2nn(-c3nc4cccnc4[nH]3)c(O)c2CCc2ccc(F)cc2)CC1 [Compound I-306, benzyl 4-{4-[2-(4-fluorophenyl)ethyl]-5-hydroxy-1-{3H-imidazo[4,5-b]pyridin-2-yl}-1H-pyrazol-3-yl}piperidine-1-carboxylate] | 13.6 nM | 731 nM | 731 nM | 9.61E- 03 | 95.7% | 95.7% | 0% | -5.2% | T, minutes (residence time) (HIV-1 NefNL4-3; [3]): 3.52E + 01 minutes; Kd (HIV-1 NefNL4-3; [4]): 5430 nM
